Results from PubChem BioAssay AID320 (DTP/NCI, 2004).
Several values for one entry are separate records, joined by “and”; a condition that tells them apart may be missing. Equal entries are not always repeated. Toxic doses and inconclusive results are not listed. *1 amine or outer side, *2 acyl side, *3 side chain or, on linkers, in order; H or OH if unused. Where a SMILES comes first, the peptide text is derived from it. Bridges are numbered along the chain shown (N, C = ends). Roman numbers before positions name the chains, in order. [ ]: non-standard residue; d: D form. Actinocin(9to1) = Cc1c2oc3c(C)ccc(C(=O)[*:1])c3nc-2c(C(=O)[*:2])c(N)c1=O; aThr = C[C@H](O)[C@H](N)C(=O)O; NMeV = CN[C@H](C(=O)O)C(C)C; Sar = CNCC(=O)O

Tested on: BDF1 mice, P329 reticulum cell sarcoma ip, survival T/C
Assay: NCI In Vivo Anticancer Drug Screen. Data for tumor model P329 Reticulum Cell Sarcoma (intraperitoneal) in B6D2F1 (BDF1) mice
Conditions: endpoint: median survival time, higher = longer survival
Description: The antitumor activity of compounds was measured in mice bearing transplantable tumors. Survival or tumor size were measured and the results are expressed as the measurement made in the treated group (T) divided by the measurement made in the vehicle treated control group (C). The tumor model used in this assay is P329 Reticulum Cell Sarcoma (intraperitoneal) in B6D2F1 (BDF1) mice

[1] = dose: 0.5 mg/kg/injection, schedule: Q01DX010 (ip), vehicle: saline
[2] = dose: 1.0 mg/kg/injection, schedule: Q01DX010 (ip), vehicle: saline
[3] = dose: 200.0 mg/kg/injection, schedule: Q01DX010 (ip), vehicle: saline
[4] = dose: 12.5 mg/kg/injection, schedule: Q01DX010 (ip), vehicle: saline
[5] = dose: 25.0 mg/kg/injection, schedule: Q01DX010 (ip), vehicle: saline
[6] = dose: 50.0 mg/kg/injection, schedule: Q01DX010 (ip), vehicle: saline
[7] = dose: 8.0 mg/kg/injection, schedule: Q01DX010 (ip), vehicle: saline
[8] = dose: 5.0 mg/kg/injection, schedule: Q01DX010 (ip), vehicle: saline
[9] = dose: 20.0 mg/kg/injection, schedule: Q01DX010 (ip), vehicle: saline
[10] = dose: 16.0 mg/kg/injection, schedule: Q01DX010 (ip), vehicle: saline
[11] = dose: 32.0 mg/kg/injection, schedule: Q01DX010 (ip), vehicle: saline
[12] = dose: 64.0 mg/kg/injection, schedule: Q01DX010 (ip), vehicle: saline
[13] = dose: 2.5 mg/kg/injection, schedule: Q01DX010 (ip), vehicle: saline
[14] = dose: 10.0 mg/kg/injection, schedule: Q01DX010 (ip), vehicle: saline

C1CN1c1nc(N2CC2)nc(N2CC2)n1
T/C (dose: 0.13 mg/kg/injection, schedule: Q01DX010 (ip), vehicle: saline): 96 % of control and 108 % of control | T/C (dose: 0.25 mg/kg/injection, schedule: Q01DX010 (ip), vehicle: saline): 115 % of control | T/C [1]: 170 % of control | T/C [2]: 150 % of control

O=c1cnn(C2OC(CO)C(O)C2O)c(=O)[nH]1 (stereo not given)
T/C [3]: 116 % of control

S=c1nc[nH]c2nc[nH]c12
T/C (dose: 20.0 mg/kg/injection, schedule: Q01DX010 (ip), vehicle: alkali diluted with saline): 150 % of control | T/C (dose: 80.0 mg/kg/injection, schedule: Q01DX010 (ip), vehicle: alkali diluted with saline): 158 % of control

O=P1(N(CCCl)CCCl)NCCCO1 (stereo not given)
T/C (dose: 11.3 mg/kg/injection, schedule: Q01DX010 (ip), vehicle: saline): 106 % of control and 121 % of control | T/C (dose: 22.5 mg/kg/injection, schedule: Q01DX010 (ip), vehicle: saline): 86 % of control

C[C@]12C=CC(=O)C=C1CC[C@@H]1[C@@H]2C(=O)C[C@@]2(C)[C@H]1CC[C@]2(O)C(=O)CO
T/C (dose: 12.5 mg/kg/injection, schedule: Q01DX010 (sc), vehicle: steriod suspending solution): 95 % of control and 104 % of control

COc1cc(-c2ccc(Nc3ccccc3C(=O)O)c(OC)c2)ccc1Nc1ccccc1C(=O)O
T/C [4]: 100 % of control | T/C [5]: 103 % of control | T/C [6]: 110 % of control | T/C (dose: 100.0 mg/kg/injection, schedule: Q01DX010 (ip), vehicle: saline): 110 % of control

O=C(Nc1ccc(C2=NCCN2)cc1)c1ccc(C(=O)Nc2ccc(C3=NCCN3)cc2)c([N+](=O)[O-])c1
T/C (dose: 6.0 mg/kg/injection, schedule: Q01DX010 (ip), vehicle: saline): 153 % of control and 175 % of control | T/C [7]: 188 % of control and 212 % of control | T/C (dose: 18.0 mg/kg/injection, schedule: Q01DX010 (ip), vehicle: saline): 91 % of control

CC(=O)Nc1ccc2nc3ccc(NC(C)=O)cc3[n+](-c3ccccc3)c2c1
T/C [5]: 121 % of control | T/C [6]: 114 % of control

CS(=O)(=O)OCCC(=O)N1CCN(C(=O)CCOS(C)(=O)=O)CC1
T/C [5]: 117 % of control | T/C [3]: 89 % of control

CC(CCC(C)OS(C)(=O)=O)OS(C)(=O)=O (stereo not given)
T/C (dose: 2.0 mg/kg/injection, schedule: Q01DX010 (ip), vehicle: saline): 100 % of control and 107 % of control | T/C (dose: 4.0 mg/kg/injection, schedule: Q01DX010 (ip), vehicle: saline): 103 % of control and 107 % of control | T/C [7]: 114 % of control and 115 % of control

CCCSc1ncnc2nc[nH]c12
T/C (dose: 31.3 mg/kg/injection, schedule: Q01DX010 (ip), vehicle: saline): 115 % of control and 123 % of control | T/C (dose: 62.5 mg/kg/injection, schedule: Q01DX010 (ip), vehicle: saline): 107 % of control | T/C (dose: 125.0 mg/kg/injection, schedule: Q01DX010 (ip), vehicle: saline): 107 % of control

O=c1[nH]cc(F)c(=O)[nH]1
T/C [8]: 123 % of control | T/C [9]: 161 % of control and 162 % of control

O=C(Nc1ccc(C2=NCCN2)cc1)c1cccc(C(=O)Nc2ccc(C3=NCCN3)cc2)c1
T/C [10]: 150 % of control and 176 % of control | T/C [11]: 169 % of control and 180 % of control | T/C [12]: 184 % of control and 196 % of control

Nc1nc(N)c2nc(CNc3ccc(C(=O)NC(CCC(=O)O)C(=O)O)cc3)cnc2n1 (stereo not given)
T/C (dose: 0.05 mg/kg/injection, schedule: Q01DX010 (ip), vehicle: other): 111 % of control | T/C (dose: 0.1 mg/kg/injection, schedule: Q01DX010 (ip), vehicle: other): 107 % of control | T/C (dose: 0.2 mg/kg/injection, schedule: Q01DX010 (ip), vehicle: other): 123 % of control

CC[n+]1c(-c2ccccc2)c2cc(N)ccc2c2ccc(N)cc21
T/C [13]: 114 % of control | T/C [9]: 107 % of control

Nc1nc2n[nH]nc2c(=O)[nH]1
T/C (dose: 100.0 mg/kg/injection, schedule: Q01DX010 (ip), vehicle: alkali diluted with saline): 153 % of control | T/C (dose: 200.0 mg/kg/injection, schedule: Q01DX010 (ip), vehicle: alkali diluted with saline): 150 % of control

Nc1nc(SCc2ccccc2)c2[nH]cnc2n1
T/C [7]: 100 % of control and 121 % of control | T/C [10]: 114 % of control and 121 % of control | T/C [11]: 117 % of control | T/C [12]: 89 % of control

N=[N+]=CC(=O)OCC(N)C(=O)O (stereo not given)
T/C (dose: 6.25 mg/kg/injection, schedule: Q01DX010 (ip), vehicle: saline): 153 % of control and 162 % of control | T/C [4]: 175 % of control and 176 % of control | T/C [5]: 87 % of control and 92 % of control

Cc1c2oc3c(C)ccc(C(=O)N[C@@H]4C(=O)N[C@H](C(C)C)C(=O)N5CCC[C@H]5C(=O)N(C)CC(=O)N(C)[C@@H](C(C)C)C(=O)O[C@H]4C)c3nc-2c(C(=O)N[C@@H]2C(=O)N[C@H](C(C)C)C(=O)N3CCC[C@H]3C(=O)N(C)CC(=O)N(C)[C@@H](C(C)C)C(=O)O[C@H]2C)c(N)c1=O (I: [aThr][dV]P[Sar][NMeV] / II: [aThr][dV]P[Sar][NMeV]; ester I:1-I:C, II:1-II:C; linker I:N-II:N via Actinocin(9to1))
T/C (dose: 12.5 micrograms/kg/injection, schedule: Q01DX010 (ip), vehicle: other): 115 % of control and 120 % of control | T/C (dose: 50.0 micrograms/kg/injection, schedule: Q01DX010 (ip), vehicle: other): 166 % of control

CO[C@H](C(=O)[C@@H](O)[C@@H](C)O)[C@@H]1Cc2cc3cc(OC4CC(OC5CC(O)C(O)C(C)O5)C(O)C(C)O4)c(C)c(O)c3c(O)c2C(=O)[C@H]1OC1CC(OC2CC(OC3CC(C)(O)C(O)C(C)O3)C(O)C(C)O2)C(O)C(C)O1 (stereo not given in full)
T/C [1]: 103 % of control | T/C [2]: 90 % of control

O[C@H](CN1CC1)[C@@H](O)CN1CC1
T/C (dose: 62.5 micrograms/kg/injection, schedule: Q01DX010 (ip), vehicle: saline): 106 % of control and 121 % of control | T/C (dose: 125.0 micrograms/kg/injection, schedule: Q01DX010 (ip), vehicle: saline): 123 % of control | T/C (dose: 250.0 micrograms/kg/injection, schedule: Q01DX010 (ip), vehicle: saline): 167 % of control | T/C (dose: 500.0 micrograms/kg/injection, schedule: Q01DX010 (ip), vehicle: saline): 166 % of control

O=c1[nH]c(=O)n(C2CC(O)C(CO)O2)cc1F (stereo not given)
T/C [8]: 103 % of control | T/C [14]: 110 % of control and 111 % of control | T/C [9]: 123 % of control | T/C (dose: 40.0 mg/kg/injection, schedule: Q01DX010 (ip), vehicle: saline): 150 % of control | T/C (dose: 80.0 mg/kg/injection, schedule: Q01DX010 (ip), vehicle: saline): 161 % of control

Clc1ccc(C(c2ccccc2Cl)C(Cl)Cl)cc1 (stereo not given)
T/C (dose: 62.5 mg/kg/injection, schedule: Q01DX010 (sc), vehicle: steriod suspending solution): 100 % of control | T/C (dose: 125.0 mg/kg/injection, schedule: Q01DX010 (sc), vehicle: steriod suspending solution): 100 % of control | T/C (dose: 250.0 mg/kg/injection, schedule: Q01DX010 (sc), vehicle: steriod suspending solution): 107 % of control | T/C (dose: 500.0 mg/kg/injection, schedule: Q01DX010 (sc), vehicle: steriod suspending solution): 103 % of control

CC[C@]1(O)C[C@H]2CN(CCc3c([nH]c4ccccc34)[C@@](C(=O)OC)(c3cc4c(cc3OC)N(C=O)[C@H]3[C@@](O)(C(=O)OC)[C@H](OC(C)=O)[C@]5(CC)C=CCN6CC[C@]43[C@@H]65)C2)C1
T/C (dose: 0.03 mg/kg/injection, schedule: Q01DX010 (ip), vehicle: saline): 100 % of control and 105 % of control | T/C (dose: 0.06 mg/kg/injection, schedule: Q01DX010 (ip), vehicle: saline): 104 % of control and 113 % of control | T/C (dose: 0.12 mg/kg/injection, schedule: Q01DX010 (ip), vehicle: saline): 114 % of control

S=P(N1CCOCC1)(N1CC1)N1CC1
T/C [13]: 100 % of control | T/C [8]: 100 % of control and 107 % of control | T/C [14]: 100 % of control and 119 % of control | T/C [9]: 107 % of control and 115 % of control
